From patent US20170233414A1, “DERIVATIVES OF BODIPY” (OREGON HEALTH & SCIENCE UNIVERSITY, priority 2016, published 2017)
Where two headings read alike, the source gives them in different places.

Assay: Fluorescence properties and quantum yield measurements of the BAA library
Type: physicochemical
Set-up: FWHM (full-width-at half max): unit not given here
Experimental: General Instruments. Synthesized sample purification was performed with an Agilent 1260 Infinity HPLC utilizing a C18 column (150mm×21.2 mm). MS (HRMS, ESI) spectra data was collected with an Agilent 6244 TOF LC/MS with diode array detector VL+ and C18 column (4.6 mm×50 mm). Absorbance and fluorescence data were measured on a SpectraMax M5 Microplate reader. NMR spectra, ^1H and ^13C, were recorded on a Bruker ARK400 spectrometer. BAA microscopy screening in cells for organelle specificity and signal-to-background ratio was completed with an Axio Zeiss Light Microscope and 63× oil immersion objective.
Fluorescence Properties and Quantum Yield Measurements. Spectroscopic characterizations were performed in anhydrous DMSO in polystyrene 96 well plate. Analysis included the maximum absorbance wavelength, maximum fluorescence emission wavelength, full-width-at half max, and quantum yield. Quantum yields (φfl) were determined by comparing the area under the emission spectrum of the BAA compound to a reference fluorophore solution at three concentrations using equation 1, where Grad represents the gradient from the plots of integrated fluorescence intensity vs absorbance at three concentrations and q is the refractive index of the solvent. Fluorescein in 0.1 M NaOH (φfl=0.91)^3 was the reference for samples with a max absorbance up to 510 nm, where an excitation of 470 nm was used with the emission integrated between 490 to 800 nm. Rhodamine B in ethanol (φfl=0.70) was the reference for samples with a max absorbance between 511-595 nm, where an excitation of 525 nm was used with the emission integrated between 545 to 800 nm. Cresyl violet in methanol (φfl=0.54)^4 was the reference for samples with a max absorbance above 595 nm, where an excitation of 570 nm was used with the emission integrated between 590 to 800 nm.

[1] = anhydrous DMSO, polystyrene 96 well plate
[2] = anhydrous DMSO, relative to reference fluorophore at three concentrations

Row | Structure (SMILES) | Stokes Shift (anhydrous DMSO) | λmax ABS [1] | λmax EM [1] | FWHM (full-width-at half max) (anhydrous DMSO, emission) | φfl (quantum yield) [2] | FWHM (full-width-at half max) | Stokes Shift | λmax ABS | λmax EM | φfl (quantum yield)
1 | COc1ccc2c(/C=C(/CC(=O)O)c3ccc4n3[B-](F)(F)[N+]3=C(/C=C/c5c(Cl)ncc6cc(OC)ccc56)C=C(C)C3=C4)c(Cl)ncc2c1 [BAA-1b] | 17 nm | 580 nm | 597 nm | 40 | 0.62 | – | – | – | – | –
2 | COc1cc(/C=C/C2=[N+]3C(=Cc4ccc(CCC(=O)O)n4[B-]3(F)F)C(C)=C2)cc(I)c1OC [BAA-3a] | 10 nm | 569 nm | 579 nm | 31 | 0.61 | – | – | – | – | –
3 | COc1cc(/C=C(/CC(=O)O)c2ccc3n2[B-](F)(F)[N+]2=C(/C=C/c4cc(I)c(OC)c(OC)c4)C=C(C)C2=C3)cc(I)c1OC [BAA-3b] | 13 nm | 574 nm | 587 nm | 34 | 0.70 | – | – | – | – | –
4 | CC1=CC(/C=C/c2ccccc2N2CCN(C)CC2)=[N+]2C1=Cc1ccc(CCC(=O)O)n1[B-]2(F)F [BAA-4a] | 19 nm | 581 nm | 600 nm | 56 | 0.43 | – | – | – | – | –
5 | COc1cc(OC)c(/C=C/C2=[N+]3C(=Cc4ccc(CCC(=O)O)n4[B-]3(F)F)C(C)=C2)c(OC)c1 [BAA-5a] | 23 nm | 592 nm | 615 nm | 47 | 0.83 | – | – | – | – | –
6 | COc1ccc2c(c1)C(/C=C/C1=[N+]3C(=Cc4ccc(CCC(=O)O)n4[B-]3(F)F)C(C)=C1)C=N2 (stereo not drawn) [BAA-6a] | 34 nm | 609 nm | 643 nm | 64 | 0.18 | – | – | – | – | –
7 | COc1ccc(/C=C/C2=[N+]3C(=Cc4ccc(CCC(=O)O)n4[B-]3(F)F)C(C)=C2)c(OC)c1C [BAA-7a] | 18 nm | 582 nm | 600 nm | 63 | 0.29 | – | – | – | – | –
8 | COc1ccc(/C=C(/CC(=O)O)c2ccc3n2[B-](F)(F)[N+]2=C(/C=C/c4ccc(OC)c(C)c4OC)C=C(C)C2=C3)c(OC)c1C [BAA-7b] | 19 nm | 581 nm | 600 nm | 56 | 0.43 | – | – | – | – | –
9 | COc1ccc(/C=C/C2=[N+]3C(=Cc4ccc(CCC(=O)O)n4[B-]3(F)F)C(C)=C2)c2ccccc12 [BAA-8a] | 29 nm | 594 nm | 623 nm | 61 | 0.50 | – | – | – | – | –
10 | COc1ccc(B(O)O)c(/C=C/C2=[N+]3C(=Cc4ccc(CCC(=O)O)n4[B-]3(F)F)C(C)=C2)c1 [BAA-9a] | 10 nm | 569 nm | 579 nm | 32 | 0.35 | – | – | – | – | –
11 | CCN(CC)c1ccc(/C=C(/CC(=O)O)c2ccc3n2[B-](F)(F)[N+]2=C(/C=C/c4ccc(N(CC)CC)cc4)C=C(C)C2=C3)cc1 [BAA-10b] | 82 nm | 632 nm | 714 nm | 102 | 0.01 | – | – | – | – | –
12 | CCCSc1ncc(/C=C/C2=[N+]3C(=Cc4ccc(CCC(=O)O)n4[B-]3(F)F)C(C)=C2)cn1 [BAA-12a] | 27 nm | 589 nm | 616 nm | 88 | 0.10 | – | – | – | – | –
13 | COc1ccc(/C=C/C2=[N+]3C(=Cc4ccc(CCC(=O)O)n4[B-]3(F)F)C(C)=C2)cc1F [BAA-13a] | 10 nm | 576 nm | 586 nm | 44 | 0.19 | – | – | – | – | –
14 | CC1=CC(/C=C/c2ccc(CC(C)C)s2)=[N+]2C1=Cc1ccc(CCC(=O)O)n1[B-]2(F)F [BAA-14a] | 13 nm | 594 nm | 607 nm | 70 | 0.44 | – | – | – | – | –
15 | C=CCc1cc(/C=C/C2=[N+]3C(=Cc4ccc(CCC(=O)O)n4[B-]3(F)F)C(C)=C2)ccc1OC [BAA-15a] | 16 nm | 581 nm | 597 nm | 39 | 0.42 | – | – | – | – | –
16 | CC1=CC(/C=C/c2cc(C)c(C)cc2C)=[N+]2C1=Cc1ccc(CCC(=O)O)n1[B-]2(F)F [BAA-16a] | 58 nm | 552 nm | 610 nm | 78 | 0.22 | – | – | – | – | –
17 | CC1=CC(/C=C/c2ccc(-c3ccccc3)cc2)=[N+]2C1=Cc1ccc(CCC(=O)O)n1[B-]2(F)F [BAA-17a] | – | – | – | – | – | 42 | 12 nm | 579 nm | 591 nm | 0.59
18 | CC1=CC(/C=C/c2ccc(OCc3ccccc3)cc2)=[N+]2C1=Cc1ccc(CCC(=O)O)n1[B-]2(F)F [BAA-18a] | 16 nm | 577 nm | 593 nm | 37 | 0.65 | – | – | – | – | –
19 | CC1=CC(/C=C/c2ccc(-c3cccs3)cc2)=[N+]2C1=Cc1ccc(CCC(=O)O)n1[B-]2(F)F [BAA-19a] | 13 nm | 582 nm | 595 nm | 35 | 0.64 | – | – | – | – | –
20 | CCSc1ncc(/C=C/C2=[N+]3C(=Cc4ccc(CCC(=O)O)n4[B-]3(F)F)C(C)=C2)cn1 [BAA-20a] | 8 nm | 577 nm | 585 nm | 31 | 0.15 | – | – | – | – | –
21 | COc1cc(OCc2ccccc2)ccc1/C=C/C1=[N+]2C(=Cc3ccc(CCC(=O)O)n3[B-]2(F)F)C(C)=C1 [BAA-21a] | 26 nm | 585 nm | 611 nm | 46 | 0.51 | – | – | – | – | –
22 | COc1cc(OCc2ccccc2)ccc1/C=C(/CC(=O)O)c1ccc2n1[B-](F)(F)[N+]1=C(/C=C/c3ccc(OCc4ccccc4)cc3OC)C=C(C)C1=C2 [BAA-21b] | 20 nm | 588 nm | 608 nm | 50 | 0.54 | – | – | – | – | –
23 | COc1cc(/C=C/C2=[N+]3C(=Cc4ccc(CCC(=O)O)n4[B-]3(F)F)C(C)=C2)ccc1OCc1ccc(F)cc1 [BAA-22a] | 17 nm | 585 nm | 602 nm | 49 | 0.39 | – | – | – | – | –
24 | COc1cc(/C=C(/CC(=O)O)c2ccc3n2[B-](F)(F)[N+]2=C(/C=C/c4ccc(OCc5ccc(F)cc5)c(OC)c4)C=C(C)C2=C3)ccc1OCc1ccc(F)cc1 [BAA-22b] | 19 nm | 582 nm | 601 nm | 46 | 0.27 | – | – | – | – | –
25 | CC1=CC(/C=C/c2ccc(-c3ccc(C(F)(F)F)cn3)cc2)=[N+]2C1=Cc1ccc(CCC(=O)O)n1[B-]2(F)F [BAA-23a] | 11 nm | 592 nm | 603 nm | 30 | 0.23 | – | – | – | – | –
26 | CC1=CC(/C=C/c2ccc(-c3ccc(C(F)(F)F)cn3)cc2)=[N+]2C1=Cc1ccc(/C(=C\c3ccc(-c4ccc(C(F)(F)F)cn4)cc3)CC(=O)O)n1[B-]2(F)F [BAA-23b] | 8 nm | 580 nm | 588 nm | 32 | 0.19 | – | – | – | – | –
27 | CC1=CC(/C=C/c2cccc(I)c2)=[N+]2C1=Cc1ccc(/C(=C\c3cccc(I)c3)CC(=O)O)n1[B-]2(F)F [BAA-24b] | 9 nm | 570 nm | 579 nm | 32 | 0.29 | – | – | – | – | –
28 | CC1=CC(/C=C/c2ccc(Oc3ccc(Cl)cc3)cc2)=[N+]2C1=Cc1ccc(/C(=C\c3ccc(Oc4ccc(Cl)cc4)cc3)CC(=O)O)n1[B-]2(F)F [BAA-27b] | 13 nm | 575 nm | 588 nm | 35 | 0.33 | – | – | – | – | –
29 | CC1=CC(/C=C/c2cc(Cl)ccc2Cl)=[N+]2C1=Cc1ccc(/C(=C\c3cc(Cl)ccc3Cl)CC(=O)O)n1[B-]2(F)F [BAA-29b] | 11 nm | 569 nm | 580 nm | 37 | 0.13 | – | – | – | – | –
30 | CC1=CC(C=Cc2cn(CCC(=O)O)c3ccccc23)=[N+]2C1=Cc1ccc(CCC(=O)O)n1[B-]2(F)F [BAA-30a] | 36 nm | 607 nm | 643 nm | 58 | 0.43 | – | – | – | – | –
